Data on 19 compounds can be found in patent US20260184707A1, “PHARMACEUTICAL COMPOUNDS FOR THE TREATMENT OF COMPLEMENT MEDIATED DISORDERS” (ALEXION PHARMACEUTICALS, INC., priority 2022, published 2026).

The target in the experiment is T1, Human complement C1s enzyme (Homo sapiens, UniProt P09871).
T1 construct: purified from human serum, Complement Technology, Inc; purchased Complement Technology, Inc; host or cells: human serum (plasma-derived native protein)
T1 sequence (P09871 438-688 limits assumed): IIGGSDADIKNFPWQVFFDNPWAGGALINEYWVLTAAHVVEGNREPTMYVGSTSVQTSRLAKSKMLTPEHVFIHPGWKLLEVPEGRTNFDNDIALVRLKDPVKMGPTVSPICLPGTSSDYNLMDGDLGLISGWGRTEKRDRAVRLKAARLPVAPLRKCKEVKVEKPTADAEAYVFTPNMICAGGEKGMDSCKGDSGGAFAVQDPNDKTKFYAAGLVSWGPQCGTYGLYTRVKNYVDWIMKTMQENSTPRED
T1 sequence (P09871 16-437 partner limits assumed): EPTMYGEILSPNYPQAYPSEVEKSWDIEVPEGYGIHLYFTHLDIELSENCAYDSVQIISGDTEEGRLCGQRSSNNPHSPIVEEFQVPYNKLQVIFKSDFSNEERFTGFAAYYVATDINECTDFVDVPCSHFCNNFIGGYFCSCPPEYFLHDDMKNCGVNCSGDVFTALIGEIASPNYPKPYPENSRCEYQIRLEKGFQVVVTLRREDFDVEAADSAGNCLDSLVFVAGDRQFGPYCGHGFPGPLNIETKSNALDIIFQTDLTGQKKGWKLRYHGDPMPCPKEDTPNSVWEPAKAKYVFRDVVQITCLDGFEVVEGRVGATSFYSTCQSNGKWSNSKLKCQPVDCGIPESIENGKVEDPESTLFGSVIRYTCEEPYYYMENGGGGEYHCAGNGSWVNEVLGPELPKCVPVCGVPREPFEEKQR
The experiment is described as follows: Human C1s enzyme assay. The note with it: human complement C1s enzyme 1.16 nM, substrate Z-L-Lys-SBzl, A405; read-out: IC50 (Stars). Format: biochemical. Summed up: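 Thioesterase activity followed colorimetrically (DTNB, A405, 30-s reads) using 100 μM Z-L-Lys-SBzl substrate. Enzyme, human serum-derived C1s at 1.16 nM final, was incubated with test compound for 5 min, room temperature, pH 7.5 Tris buffer with 1 M NaCl. Rate-versus-concentration data fitted by nonlinear regression for IC50.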

In the case of `Cc1nc(-c2ccccc2)n(CC(=O)NCc2cc3cnccc3[nH]2)c(=O)c1N[C@H](C)c1ccc2oc3ccccc3c2c1` [Compound 336, (R)—N-((1H-pyrrolo[3,2-c]pyridin-2-yl)methyl)-2-(5-((1-(dibenzo[b,d]furan-2-yl)ethyl)amino)-4-methyl-6-oxo-2-phenylpyrimidin-1(6H)-yl)acetamide], the IC50 was < 100 nM. For the compound `Cc1nc(-c2ccccc2)n(CC(=O)NCc2cc3cnccc3[nH]2)c(=O)c1NCc1ccc2oc3ccccc3c2c1` [Compound 337, N-((1H-pyrrolo[3,2-c]pyridin-2-yl)methyl)-2-(5-((dibenzo [b,d]furan-2-ylmethyl)amino)-4-methyl-6-oxo-2-phenylpyr-imidin-1(6H)-yl)acetamide], the IC50 is < 100 nM. Next, `C[C@@H](Nc1c[nH]c(=O)n(CC(=O)NCc2cc3cnccc3[nH]2)c1=O)c1ccc2oc3ccccc3c2c1` [Compound 338, (R)-N-((1H-pyrrolo[3,2-c]pyridin-2-yl)methyl)-2-(5-((1-(dibenzo[b,d]furan-2-yl)ethyl)-amino)-2,6-dioxo-3,6-dihydro-pyrimidin-1(2H)-yl)acetamide]: 100 to 1000 nM; `C[C@@H](Nc1cnc(-c2cscn2)n(CC(=O)NCc2cc3cnccc3[nH]2)c1=O)c1ccc2oc3ccccc3c2c1` [Compound 339, (R)-N-((1H-pyrrolo[3,2-c]pyridin-2-yl)methyl)-2-(5-((1-(dibenzo[b,d]furan-2-yl)ethyl)-amino)-6-oxo-2-(thiazol-4-yl)-pyrimidin-1(6H)-yl)acetamide]: < 100 nM; `C[C@@H](Nc1cnc(-c2nccs2)n(CC(=O)NCc2cc3cnccc3[nH]2)c1=O)c1ccc2oc3ccccc3c2c1` [Compound 340, (R)-N-((1H-pyrrolo[3,2-c]pyridin-2-yl)methyl)-2-(5-((1-(dibenzo[b,d]furan-2-yl)ethyl)-amino)-6-oxo-2-(thiazol-2-yl)-pyrimidin-1(6H)-yl)acetamide]: 100 to 1000 nM. Turning to `CC(C)c1ncc(N[C@H](C)c2ccc3oc4ccccc4c3c2)c(=O)n1CC(=O)NCc1cc2cnccc2[nH]1` [Compound 341, (R)—N-((1H-pyrrolo[3,2-c]pyridine-2-yl)methyl)-2-(5-((1-(dibenzo[b,d]furan-2-yl)ethyl)amino)-2-isopropyl-6-oxopyrimidin-1(6H)-yl)acetamide], the IC50 was 100 to 1000 nM. With `C[C@@H](Nc1cnc(C2CC2)n(CC(=O)NCc2cc3cnccc3[nH]2)c1=O)c1ccc2oc3ccccc3c2c1` [Compound 342, (R)-N-((1H-pyrrolo[3,2-c]pyridin-2-yl)methyl)-2-(2-cyclopropyl-5-((1-(dibenzo [b,d]furan-2-yl)ethyl)amino)-6-oxo-pyrimidin-1(6H)-yl)-acetamide] the figure was 100 to 1000 nM; with `C[C@@H](Nc1cnc(OC2CC2)n(CC(=O)NCc2cc3cnccc3[nH]2)c1=O)c1ccc2oc3ccccc3c2c1` [Compound 343, (R)—N-((1H-pyrrolo[3,2-c]pyridine-2-yl)methyl)-2-(2-cyclopropoxy-5-((1-(dibenzo[b,d]furan-2-yl)ethyl)amino)-6-oxopyrimidin-1(6H)-yl)acetamide], 100 to 1000 nM. With `C[C@@H](Nc1cnc(N2CCOCC2)n(CC(=O)NCc2cc3cnccc3[nH]2)c1=O)c1ccc2oc3ccccc3c2c1` [Compound 344, (R)-N-((1H-pyrrolo[3,2-c]pyridin-2-yl)methyl)-2-(5-((1-(dibenzo[b,d]furan-2-yl)ethyl)-amino)-2-morpholino-6-oxo-pyrimidin-1(6H)-yl)acetamide] the figure was < 100 nM; with `C[C@@H](Nc1cnc(-c2ccc(S(F)(F)(F)(F)F)cc2)n(CC(=O)NCc2cc3cnccc3[nH]2)c1=O)c1ccc2oc3ccccc3c2c1` [Compound 345, (R)-N-((1H-pyrrolo[3,2-c]pyridin-2-yl)methyl)-2-(5-((1-(dibenzo[b,d]furan-2-yl)ethyl)-amino)-6-oxo-2-(4-(penta-fluoro-lambda6-sulfaneyl)-phenyl)pyrimidin-1(6H)-yl)-acetamide], < 100 nM. With `C[C@@H](Nc1cncn(CC(=O)NCc2cc3cnccc3[nH]2)c1=O)c1ccc2c(c1)-c1ccccc1C2(F)F` [Compound 346, (R)-N-((1H-pyrrolo[3,2-c]pyridin-2-yl)methyl)-2-(5-((1-(9,9-difluoro-9H-fluoren-3-yl)-ethyl)amino)-6-oxopyrimidin-1(6H)-yl)acetamide] the figure was 100 to 1000 nM; with `C[C@@H](Nc1cnc(-c2ccccc2)n(CC(=O)NCc2cc3cnccc3[nH]2)c1=O)c1coc(-c2ccccc2)n1` [Compound 347, (R)-N-((1H-pyrrolo[3,2-c]pyridin-2-yl)methyl)-2-(6-oxo-2-phenyl-5-((1-(2-phenyloxa-zol-4-yl)ethyl)amino)pyrimi-din-1(6H)-yl)acetamide], < 100 nM; with `C[C@@H](Nc1ncc(-c2ccccc2)n(CC(=O)NCc2cc3cnccc3[nH]2)c1=O)c1ccc2oc3ccccc3c2c1` [Compound 348, (R)-N-((1H-pyrrolo[3,2-c]pyridin-2-yl)methyl)-2-(3-((1-(dibenzo[b,d]furan-2-yl)ethyl)-amino)-2-oxo-6-phenylpyr-azin-1(2H)-yl)acetamide], < 100 nM. For `Cc1cnc(N[C@H](C)c2ccc3oc4ccccc4c3c2)c(=O)n1CC(=O)NCc1cc2cnccc2[nH]1` [Compound 349, (R)-N-((1H-pyrrolo[3,2-c]pyridin-2-yl)methyl)-2-(3-((1-(dibenzo[b,d]furan-2-yl)ethyl)-amino)-6-methyl-2-oxopyr-azin-1(2H)-yl)acetamide], the IC50 is < 100 nM. With `C[C@@H](Nc1cnc(-c2ccccc2F)n(CC(=O)NCc2cc3cnccc3[nH]2)c1=O)c1ccc2c(c1)oc1ccccc12` [Compound 350, (R)—N-((1H-pyrrolo[3,2-c]pyridine-2-yl)methyl)-2-(5-((1-(dibenzo[b,d]furan-3-yl)ethyl)amino)-2-(2-fluorophenyl)-6-oxopyrimidin-1(6H)-yl)acetamide] the figure was < 100 nM; with `C[C@@H]1CN(c2ncc(N[C@H](C)c3ccc4oc5ccccc5c4c3)c(=O)n2CC(=O)NCc2cc3cnccc3[nH]2)C[C@@H](C)O1` [Compound 355, N-((1H-pyrrolo[3,2-c]pyridin-2-yl)methyl)-2-(5-(((R)-1-(dibenzo[b,d]furan-2-yl)ethyl)-amino)-2-((2R,6R)-2,6-dimeth-ylmorpholino)-6-oxopyrimidin-1(6H)-yl)acetamide], 100 to 1000 nM. For `Cc1ccccc1-c1ncc(N[C@H](C)c2ccc3oc4ccccc4c3c2)c(=O)n1CC(=O)NCc1cc2cnccc2[nH]1` [Compound 356, 2-[5-[[(1R)-1-dibenzofuran-2-ylethyl]amino]-2-(o-tolyl)-6-oxo-pyrimidin-1-yl]-N-(1H-pyrrolo[3,2-c]pyridine-2-ylmethyl)acetamide], the IC50 is > 1000 nM. As to `C[C@@H](Nc1cnc(-c2cncs2)n(CC(=O)NCc2cc3cnccc3[nH]2)c1=O)c1ccc2oc3ccccc3c2c1` [Compound 358, (R)-N-((1H-pyrrolo[3,2-c]pyridin-2-yl)methyl)-2-(5-((1-(dibenzo[b,d]furan-2-yl)ethyl)-amino)-6-oxo-2-(thiazol-5-yl)-pyrimidin-1(6H)-yl)acetamide], the IC50 is < 100 nM.

Take `C[C@@H](Nc1cnc(-c2ccccc2)n(CC(=O)NCc2cc3cnccc3[nH]2)c1=O)c1ccc2c(c1)-c1ccccc1C2(F)F` [Compound 359, (R)-N-((1H-pyrrolo[3,2-c]pyridin-2-yl)methyl)-2-(5-((1-(9,9-difluoro-9H-fluoren-3-yl)-ethyl)amino)-6-oxo-2-phenyl-pyrimidin-1(6H)-yl)acetamide]: the IC50 was < 100 nM.

The IC50 is the midpoint of a concentration-inhibition curve.
